In PubChem BioAssay (NCI) one finds TGI data, which are given here for 14 compounds.

The structures appear in SMILES notation.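 Cultured in 96-well plates, cells were exposed to test compound for 48 hours across five concentrations. TGI: total growth inhibition.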

Among the test systems are DU-145 prostate; IGROV1 ovarian; PC-3 prostate; MCF7 breast; SR leukemia; HOP-62 NSCLC; MDA-N; SNB-75 CNS; A549 NSCLC; NCI/ADR-RES ovarian; MDA-MB-435; RPMI-8226 leukemia; SK-MEL-28 melanoma; OVCAR-8 ovarian; SK-MEL-2 melanoma; M14 melanoma; OVCAR-4 ovarian; HS 578T breast; U251 CNS; OVCAR-5 ovarian.
Holding throughout (test): NCI anticancer screen, dose series, 48 h

With `COc1ccc(C(=O)/C=C/c2ccc(OCCSCCCCCCCCCCSCCOc3ccc(/C=C/C(=O)c4ccc(OC)cc4)cc3)cc2)cc1`, the TGI with DU-145 prostate, in the assay with IGROV1 ovarian, in the assay on PC-3 prostate, with MCF7 breast, in the assay with SR leukemia and in the assay with HOP-62 NSCLC was more than 100 µM throughout. Moreover, the TGI with MDA-N, in the assay on SNB-75 CNS, with A549 NSCLC, in the assay with NCI/ADR-RES ovarian, in the assay with MDA-MB-435 and with RPMI-8226 leukemia was more than 100 µM each time. Moreover, the TGI in the assay with SK-MEL-28 melanoma, with OVCAR-8 ovarian, with SK-MEL-2 melanoma, with M14 melanoma, in the assay on OVCAR-4 ovarian and in the assay on HS 578T breast was more than 100 µM in each case. Besides, the TGI in the assay on U251 CNS was more than 100 µM.

As for `C#CCOCn1ccc(=O)[nH]c1=O`, the TGI in the assay on DU-145 prostate, in the assay on IGROV1 ovarian, in the assay with PC-3 prostate, in the assay on MCF7 breast, in the assay on SR leukemia and with HOP-62 NSCLC was more than 100 µM in each case. For the same compound, the TGI in the assay on MDA-N, with SNB-75 CNS, with A549 NSCLC, with NCI/ADR-RES ovarian, in the assay on MDA-MB-435 and with RPMI-8226 leukemia was more than 100 µM throughout. Besides, the TGI in the assay on OVCAR-5 ovarian, in the assay with SK-MEL-28 melanoma, in the assay on OVCAR-8 ovarian, in the assay with SK-MEL-2 melanoma, in the assay with M14 melanoma and in the assay on OVCAR-4 ovarian was more than 100 µM each time. In addition, the TGI in the assay on HS 578T breast and with U251 CNS was more than 100 µM in each case.

With `CC(=O)OC1COC(n2nc(/C=C/c3ccc(Cl)cc3)c(=O)n(/N=C/c3ccccc3)c2=S)C(OC(C)=O)C1OC(C)=O` (centres undefined), the TGI in the assay on DU-145 prostate, in the assay on IGROV1 ovarian, with PC-3 prostate, in the assay on MCF7 breast, in the assay on SR leukemia and with HOP-62 NSCLC was more than 100 µM throughout. The TGI in the assay on MDA-N, in the assay with SNB-75 CNS, in the assay on A549 NSCLC, in the assay on NCI/ADR-RES ovarian, with MDA-MB-435 and in the assay on RPMI-8226 leukemia was more than 100 µM throughout. Besides, the TGI with OVCAR-5 ovarian, with SK-MEL-28 melanoma, in the assay with OVCAR-8 ovarian, with SK-MEL-2 melanoma, in the assay on M14 melanoma and with OVCAR-4 ovarian was more than 100 µM each time. Besides, the TGI in the assay on HS 578T breast and in the assay with U251 CNS was more than 100 µM throughout.

As for `C=CCOc1ccc(/C(N=Nc2ccccc2)=N/NC(=O)c2ccccc2)cc1OC`, the TGI in the assay on DU-145 prostate, in the assay on IGROV1 ovarian, in the assay on PC-3 prostate, with MCF7 breast, in the assay on SR leukemia and in the assay with HOP-62 NSCLC was more than 100 µM each time. For the same compound, the TGI in the assay with MDA-N, in the assay on SNB-75 CNS, in the assay on A549 NSCLC, with NCI/ADR-RES ovarian, in the assay with MDA-MB-435 and in the assay with OVCAR-5 ovarian was more than 100 µM in each case. For the same compound, the TGI in the assay on SK-MEL-28 melanoma, with OVCAR-8 ovarian, with SK-MEL-2 melanoma, with M14 melanoma, with OVCAR-4 ovarian and with HS 578T breast was more than 100 µM throughout. This compound also had a TGI in the assay on U251 CNS of more than 100 µM.

In the case of `C(=C\c1nccs1)/c1cccc(/C=C/c2nccs2)n1`, the TGI in the assay on DU-145 prostate, in the assay on IGROV1 ovarian, with PC-3 prostate, in the assay on MCF7 breast, in the assay with SR leukemia and in the assay with HOP-62 NSCLC was more than 50 µM in each case. In addition, the TGI in the assay on MDA-N, with SNB-75 CNS, in the assay on A549 NSCLC, in the assay on NCI/ADR-RES ovarian, with MDA-MB-435 and in the assay with RPMI-8226 leukemia was more than 50 µM each time. Moreover, the TGI with OVCAR-5 ovarian, in the assay with SK-MEL-28 melanoma, in the assay on OVCAR-8 ovarian, with SK-MEL-2 melanoma, in the assay on M14 melanoma and with OVCAR-4 ovarian was more than 50 µM each time. The TGI in the assay with HS 578T breast and in the assay with U251 CNS was more than 50 µM throughout.

In the case of `O=C(N/N=C/c1ccc([N+](=O)[O-])cc1)c1cccc2nc3ccccc3nc12`, the TGI was more than 100 µM with DU-145 prostate; more than 100 µM with IGROV1 ovarian; more than 100 µM in the assay with PC-3 prostate; more than 100 µM with MCF7 breast; more than 64.7 µM with SR leukemia; 22.7 µM with HOP-62 NSCLC. Also, the TGI with MDA-N, in the assay on SNB-75 CNS, in the assay with A549 NSCLC, in the assay on NCI/ADR-RES ovarian, in the assay on MDA-MB-435 and with RPMI-8226 leukemia was more than 100 µM in each case. The TGI in the assay on OVCAR-5 ovarian, with SK-MEL-28 melanoma, in the assay with OVCAR-8 ovarian, in the assay on SK-MEL-2 melanoma, in the assay on M14 melanoma and in the assay with OVCAR-4 ovarian was more than 100 µM throughout. Moreover, the TGI in the assay with HS 578T breast was 73.6 µM; in the assay on U251 CNS it was more than 100 µM.

In the case of `Cc1cc(C)nc(NC(=S)Nc2ccccc2Cl)c1`, the TGI in the assay on DU-145 prostate, with IGROV1 ovarian, in the assay on PC-3 prostate, with MCF7 breast, in the assay with SR leukemia and in the assay with HOP-62 NSCLC was more than 100 µM in each case. The TGI in the assay on MDA-N, with SNB-75 CNS, in the assay on A549 NSCLC, in the assay with NCI/ADR-RES ovarian, in the assay with MDA-MB-435 and in the assay with RPMI-8226 leukemia was more than 100 µM each time. Also, the TGI with OVCAR-5 ovarian, in the assay with SK-MEL-28 melanoma, with OVCAR-8 ovarian, in the assay with SK-MEL-2 melanoma, with M14 melanoma and in the assay with OVCAR-4 ovarian was more than 100 µM throughout. For the same compound, the TGI in the assay on HS 578T breast and with U251 CNS was more than 100 µM throughout.

For the compound `CCO[C@@H]1CCC(S(=O)c2ccc(C)cc2)=CO1` (some centres undefined), the TGI in the assay on DU-145 prostate, in the assay on IGROV1 ovarian, in the assay with PC-3 prostate, in the assay on MCF7 breast, in the assay on SR leukemia and in the assay on HOP-62 NSCLC was more than 100 µM in each case. For the same compound, the TGI in the assay with MDA-N, in the assay with SNB-75 CNS, in the assay with NCI/ADR-RES ovarian, with MDA-MB-435, in the assay with RPMI-8226 leukemia and in the assay on OVCAR-5 ovarian was more than 100 µM each time. For the same compound, the TGI in the assay on SK-MEL-28 melanoma, in the assay on OVCAR-8 ovarian, in the assay on SK-MEL-2 melanoma, in the assay with OVCAR-4 ovarian, in the assay on HS 578T breast and in the assay with U251 CNS was more than 100 µM throughout.

Consider `Cc1nn(C(=O)c2ccncc2)c2c1C(c1ccc(Cl)cc1)SC(N)=N2` (centres undefined), for which the TGI with DU-145 prostate, with IGROV1 ovarian, in the assay with PC-3 prostate, in the assay on MCF7 breast, with SR leukemia and in the assay on HOP-62 NSCLC was more than 10 µM in each case. Further, the TGI in the assay on MDA-N, in the assay with SNB-75 CNS, in the assay on A549 NSCLC, with NCI/ADR-RES ovarian, with MDA-MB-435 and in the assay with RPMI-8226 leukemia was more than 10 µM each time. The TGI with OVCAR-5 ovarian, in the assay with SK-MEL-28 melanoma, with OVCAR-8 ovarian, in the assay with SK-MEL-2 melanoma, with M14 melanoma and in the assay with OVCAR-4 ovarian was more than 10 µM throughout. In the assay on HS 578T breast, the TGI is more than 10 µM.

As to `C=CC(C)(C)C(=C)C(=O)N(C)c1ccccc1I`, the TGI in the assay on DU-145 prostate, in the assay on PC-3 prostate, in the assay with MCF7 breast, in the assay on SR leukemia, with HOP-62 NSCLC and with MDA-N was more than 100 µM in each case. For the same compound, the TGI with SNB-75 CNS, in the assay with A549 NSCLC, in the assay with NCI/ADR-RES ovarian, with MDA-MB-435, in the assay with RPMI-8226 leukemia and with OVCAR-5 ovarian was more than 100 µM each time. The TGI in the assay on SK-MEL-28 melanoma, with OVCAR-8 ovarian, in the assay with SK-MEL-2 melanoma, with M14 melanoma, in the assay with OVCAR-4 ovarian and with HS 578T breast was more than 100 µM in each case. In addition, the TGI in the assay on U251 CNS is more than 100 µM.

As to `COc1cc(C[C@H]2C(=O)OC[C@@H]2Cc2ccc(OC)c(OC)c2)cc(OC)c1`, the TGI in the assay on DU-145 prostate, in the assay on IGROV1 ovarian, in the assay with PC-3 prostate, in the assay with MCF7 breast, in the assay on SR leukemia and with HOP-62 NSCLC was more than 100 µM each time. Further, the TGI with MDA-N, in the assay on SNB-75 CNS, in the assay with A549 NSCLC, in the assay with NCI/ADR-RES ovarian, in the assay with MDA-MB-435 and with RPMI-8226 leukemia was more than 100 µM throughout. Besides, the TGI in the assay on OVCAR-5 ovarian, with SK-MEL-28 melanoma, with OVCAR-8 ovarian, with SK-MEL-2 melanoma, with M14 melanoma and with OVCAR-4 ovarian was more than 100 µM throughout. The TGI with HS 578T breast and in the assay on U251 CNS was more than 100 µM each time.

With `COc1ccc(N=Nc2ccc3oc(=O)c(C(=O)Nc4ccccc4)cc3c2)cc1`, the TGI in the assay on DU-145 prostate, in the assay with IGROV1 ovarian, in the assay with PC-3 prostate, with MCF7 breast, with SR leukemia and with HOP-62 NSCLC was more than 10 µM in each case. Also, the TGI in the assay with MDA-N, in the assay with SNB-75 CNS, in the assay on A549 NSCLC, in the assay on NCI/ADR-RES ovarian, in the assay with MDA-MB-435 and in the assay with RPMI-8226 leukemia was more than 10 µM throughout. Moreover, the TGI in the assay with OVCAR-5 ovarian, in the assay on SK-MEL-28 melanoma, with OVCAR-8 ovarian, in the assay on SK-MEL-2 melanoma, in the assay on M14 melanoma and in the assay on OVCAR-4 ovarian was more than 10 µM each time. Besides, the TGI in the assay on HS 578T breast and in the assay on U251 CNS was more than 10 µM each time.

`CCOC(=O)c1cc(C2CCN(CC(C)CC)C2=S)c(-c2cc(C)no2)[nH]1` (centres undefined): the TGI in the assay with DU-145 prostate, in the assay on IGROV1 ovarian, in the assay on PC-3 prostate, in the assay on MCF7 breast, with SR leukemia and in the assay with HOP-62 NSCLC was more than 100 µM in each case. Besides, the TGI in the assay on MDA-N, with SNB-75 CNS, with A549 NSCLC, in the assay with NCI/ADR-RES ovarian, with MDA-MB-435 and with RPMI-8226 leukemia was more than 100 µM throughout. Further, the TGI in the assay with OVCAR-5 ovarian, in the assay on SK-MEL-28 melanoma, with OVCAR-8 ovarian, in the assay with SK-MEL-2 melanoma, in the assay on M14 melanoma and in the assay with OVCAR-4 ovarian was more than 100 µM in each case. In addition, the TGI in the assay with HS 578T breast and in the assay with U251 CNS was more than 100 µM in each case.

With `O=C(Cn1cc(F)c(=O)[nH]c1=O)C12CC3CC(CC(C3)C1)C2`, the TGI in the assay with DU-145 prostate, in the assay on IGROV1 ovarian, with PC-3 prostate, in the assay with MCF7 breast, in the assay with SR leukemia and in the assay with HOP-62 NSCLC was more than 100 µM throughout. Also, the TGI in the assay with MDA-N, with SNB-75 CNS, in the assay with A549 NSCLC, with NCI/ADR-RES ovarian, in the assay on MDA-MB-435 and in the assay with RPMI-8226 leukemia was more than 100 µM throughout. The TGI in the assay on OVCAR-5 ovarian, with SK-MEL-28 melanoma, in the assay with OVCAR-8 ovarian, in the assay on SK-MEL-2 melanoma, in the assay with M14 melanoma and in the assay with OVCAR-4 ovarian was more than 100 µM each time. The TGI with HS 578T breast and with U251 CNS was more than 100 µM each time.
